# Source: patent US20070032477A1, “Pteridine derivatives useful for making pharmaceutical compositions” (priority 2003, published 2007)
# Counter-ions that a name gives are not always drawn.
# Columns and labels:
# [1] = Mixed lymphocyte reaction (MLR) assay; assay type: cell-based, human; settings: Homo sapiens, Lymphocyte; lowest concentration giving 50% suppression of the MLR; [3H]-thymidine
# [2] = tested on: production of TNF-α by PBMC in response to stimulation by LPS; assay: TNF-α assay; assay type: cell-based, human; settings: LPS 1 μg/ml, 72 hours, sandwich ELISA
# Procedure, shortened: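 Cells were LPS-stimulated (1 μg/ml final) peripheral blood mononuclear cells at 10^6/ml, exposed 72 h at 37 °C to 0.1, 1 or 10 μM test compound.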
# [3] = tested on: mixed lymphocyte reaction (PBMC with allogeneic PBMC or Eppstein-Barr Virus-transformed human B cells as stimulator cells); assay: Mixed lymphocyte reaction (MLR) assay; assay type: cell-based; settings: lowest concentration giving 50% suppression of the MLR; [3H]-thymidine
# [4] = tested on: production of IL-1 β by PBMC in response to stimulation by LPS; assay: IL-1 β assay; assay type: cell-based, human; settings: LPS 1 μg/ml, 72 hours, sandwich ELISA
# Description: Peripheral blood mononuclear cells (herein referred as PBMC), in response to stimulation by lipopolysaccharide (LPS), a gram-negative bacterial endotoxin, produce various […], in particular human IL-1 β. Inhibition of the activation of PBMC can therefore be measured by the level of suppression of the production of IL-1 β by PBMC in response to stimulation by LPS.
# Such inhibition measurement was performed as follows: PBMC were isolated from heparinized peripheral blood by density gradient centrifugation over Lymphoprep (commercially available from Nycomed, Norway). LPS was then added to the PMBC suspension in complete medium (10^6 cells/ml) at a final concentration of 1 μg/ml. The pteridine derivative to be tested was added at different concentrations (0.1 μM, 1 μM and 10 μM) and the cells were incubated at 37° C. for 72 hours in 5% CO2. The supernatants were collected, then IL-1 β concentrations were measured with an anti-IL-1 β antibody in a sandwich ELISA. The calorimetric reading of the ELISA was measured by a Multiskan RC plate reader (commercially available from ThermoLabsystems, Finland) at 450 nm (reference wavelength: 690 nm). Data analysis was performed with Ascent software 2.6. (also from ThermoLabsystems, Finland): a standard curve (recombinant human IL-1 β) was drawn and the amount (pg/ml) of each sample on the standard curve was determined.
# The % suppression of human IL-1 β by the pteridine derivatives (drugs) of this invention was calculated using the formula: [formula]
Molecule,IC50 [1],IC50 ([2]; Homo sapiens),IC50 [3],IC50 [4],IC50 [2]
"CCOCCN1CCN(c2nc(N)nc3ncc(-c4ccc(OC)c(OC)c4)nc23)CC1 [Example 165, 2-amino-6-(3,4-dimethoxyphenyl)-4-(4-(2-ethoxyethyl)-piperazin-1-yl)pteridine]",2900 nM,300 nM,–,–,–
"COc1ccc(-c2cnc3nc(NCc4cccs4)nc(N)c3n2)cc1OC [Example 80, 2-(2-thienylmethylamino)-4-amino-6-(3,4-dimethoxyphenyl)pteridine]",4700 nM,–,–,–,–
"COc1ccc(-c2cnc3nc(NCc4ccccc4)nc(N)c3n2)cc1OC [Example 82, 2-benzylamino-4-amino-6-(3,4-dimethoxyphenyl)pteridine]",3200 nM,–,–,–,–
"COc1ccc(-c2cnc3nc(N)nc(N4CCN(CCC5OCCO5)CC4)c3n2)cc1OC [Example 164, 2-amino-6-(3,4-dimethoxyphenyl)-4-(4-(2-(1,3)-dioxolan-2-yl-ethyl)-piperazin-1-yl)pteridine]",2300 nM,200 nM,–,–,–
"COc1ccc(-c2cnc3nc(N4CCCCC4)nc(N)c3n2)cc1OC [Example 87, 4-amino-2-piperidino-6-(3,4-dimethoxyphenyl)pteridine]",8400 nM,–,–,–,–
"COc1ccc(-c2cnc3nc(N)nc(N4CCN(C(=O)Cc5cccs5)CC4)c3n2)cc1OC [Example 36, 2-amino-4-[(N-2-thiophenacetyl)-piperazin-1-yl]-6-(3,4-dimethoxy-phenyl)pteridine]",–,–,800 nM,800 nM,300 nM
"CCCCCN1CCN(c2nc(N)nc3ncc(-c4ccc(OC)c(OC)c4)nc23)CC1 [Example 167, 2-amino-6-(3,4-dimethoxyphenyl)-4-(1-pentyl-piperazin-1-yl)pteridine]",–,–,3800 nM,3700 nM,300 nM
"COc1ccc(-c2cnc3nc(N)nc(N4CCN(C(=O)N(C(C)C)C(C)C)CC4)c3n2)cc1OC [Example 20, 2-amino-4-[(N-diisopropylcarbamoyl)-piperazin-1-yl]-6-(3,4-dimethoxy-phenyl)pteridine]",–,–,500 nM,8500 nM,30 nM
"COc1ccc(-c2cnc3nc(N)nc(N4CCN(c5ccc(C)c(C)c5)CC4)c3n2)cc1OC [Example 174, 2-amino-6-(3,4-dimethoxyphenyl)-4-((3,4-dimethylphenyl)-piperazin-1-yl)pteridine]",–,–,500 nM,5000 nM,110 nM
COc1ccc(-c2cnc3nc(N)nc(N4CCN(C(=O)Nc5ccc(F)cc5)CC4)c3n2)cc1OC [Example 100],–,–,7.4 nM,7400 nM,510 nM
"COc1ccc(-c2cnc3nc(N)nc(N4CCN(CCN5CCCCC5)CC4)c3n2)cc1OC [Example 184, 2-amino-6-(3,4-dimethoxyphenyl)-4-(4-(2-piperidin-1-yl-ethyl)-piperazin-1-yl)pteridine trihydrochloride salt]",7700 nM,700 nM,–,–,–
"CC(=O)N1CCN(c2nc(N)nc3ncc(-c4ccc(C)cc4)nc23)CC1 [Example 56, 2-amino-4-(N-acetylpiperazin-1-yl)-6-(4-tolyl)pteridine]",–,–,2800 nM,8700 nM,3700 nM
COc1ccc(-c2cnc3nc(N)nc(N4CCN(C(=O)c5ccc(Cl)cc5)CC4)c3n2)cc1OC [Example 12],–,–,300 nM,5000 nM,200 nM
"COc1ccc(-c2cnc3nc(N)nc(N4CCN(C(=O)NCCc5cccs5)CC4)c3n2)cc1OC [Example 108, 2-amino-4-[N-2-(2-thienyl)ethylcarbamoyl-piperazin-1-yl]-6-(3,4-dimethoxyphenyl)pteridine]",–,–,34 nM,1000 nM,400 nM
"COc1ccc(-c2cnc3nc(N)nc(N4CCN(Cc5cccc(C)c5)CC4)c3n2)cc1OC [Example 136, 2-amino-4-(1-(3-methyl-benzyl)piperazinyl)-6-(3,4-dimethoxyphenyl)pteridine]",–,–,1400 nM,4700 nM,800 nM
"2-amino-4-((1-phenylethyl)-piperazin-1-yl)-6-(3,4-dimethoxyphenyl)pteridine [Example 152]",–,–,1200 nM,3600 nM,300 nM
COc1ccc(-c2cnc3nc(N)nc(N4CCN(CCOc5ccccc5)CC4)c3n2)cc1OC [Example 154],–,–,100 nM,2200 nM,30 nM
"COc1ccc(-c2cnc3nc(N)nc(N4CCN(C(=O)Nc5ccc(C)cc5)CC4)c3n2)cc1OC [Example 101, 2-amino-4-(N-4-methylphenyl-carbamoyl-piperazin-1-yl)-6-(3,4-dimethoxyphenyl)pteridine]",–,–,0.8 nM,5600 nM,430 nM
"COc1ccc(OC(=O)N2CCN(c3nc(N)nc4ncc(-c5ccc(OC)c(OC)c5)nc34)CC2)cc1 [Example 91, 2-amino-4-[(N-4-methoxy-phenoxy-carbonyl)-piperazin-1-yl]-6-(3,4-dimethoxy-phenyl)pteridine]",–,–,52 nM,4200 nM,60 nM
COc1ccc(-c2cnc3nc(N)nc(N4CCN(Cc5ccncc5)CC4)c3n2)cc1OC [Example 157],–,–,500 nM,2300 nM,300 nM
"COc1ccc(-c2cnc3nc(N)nc(N4CCN(CC(=O)N(C)c5ccccc5)CC4)c3n2)cc1OC [Example 132, 2-amino-4-(2-[piperazin-1-yl]-acetic acid N-methyl N-phenyl amide)-6-(3,4-dimethoxyphenyl)pteridine]",–,–,< 100 nM,5300 nM,50 nM
"COc1ccc(-c2cnc3nc(N)nc(N4CCN(c5ccc(Cl)c(Cl)c5)CC4)c3n2)cc1OC [Example 150, 2-amino-4-((3,4-dichlorophenyl)-piperazin-1-yl)-6-(3,4-dimethoxyphenyl)pteridine]",–,–,1000 nM,3500 nM,300 nM
COc1ccc(-c2cnc3nc(N)nc(N4CCN(c5nccs5)CC4)c3n2)cc1OC [Example 178],–,–,1300 nM,4000 nM,150 nM
"COc1ccc(-c2cnc3nc(N)nc(N4CCN(C(=O)C=Cc5ccccc5)CC4)c3n2)cc1OC [Example 37, 2-amino-4-[(N-cinnamoyl)-piperazin-1-yl]-6-(3,4-dimethoxyphenyl)pteridine]",–,–,< 1 nM,3300 nM,100 nM
"CCCN(CCC)CCN1CCN(c2nc(N)nc3ncc(-c4ccc(OC)c(OC)c4)nc23)CC1 [Example 183, 2-amino-6-(3,4-dimethoxyphenyl)-4-(4-(2-dipropylaminoethyl)-piperazin-1-yl)pteridine trihydrochloride salt]",8200 nM,1200 nM,–,–,–
"COc1ccc(-c2cnc3nc(N)nc(N4CCC(C(=O)CN5CCNCC5)C4)c3n2)cc1OC (stereo not shown) [Example 131, 2-amino-4-(4-[2-(piperazin-1-yl)-acetyl]-pyrrolidino)-6-(3,4-dimethoxy-phenyl)pteridine]",300 nM,1900 nM,–,–,–
"COc1ccc(-c2cnc3nc(N)nc(N4CCN(C(=S)N(C)C)CC4)c3n2)cc1OC [Example 49, 2-amino-4-[(N-dimethylthiocarbamoyl)-piperazin-1-yl]-6-(3,4-dimethoxy-phenyl)pteridine]",–,–,400 nM,2200 nM,70 nM
"2-amino-4-((2-pyridyl)-piperazin-1-yl)-6-(3,4-dimethoxyphenyl)pteridine [Example 146]",–,–,200 nM,5000 nM,200 nM
